Among the data in ChEMBL document CHEMBL1158177, “Synthesis and structure guided evaluation of estrogen agonist and antagonist activities of some new tetrazolyl indole derivatives” (2008) are Activity, RBA and inhibition in vivo values, retold here.

Experiment [1] has as its system Rattus norvegicus. As to the kind of experiment: Antiimplantation activity in Sprague-Dawley rat uterus at 10 mg/kg, po for 7 days measured on day 11. It is filed as functional.
For experiment [2], the system named is Rattus norvegicus. As to the kind of experiment: Estrogenic activity in ovariectomised Sprague-Dawley rat assessed as uterine weight gain at 10 mg/kg, po once daily for three days after 24 hrs of last treatment relative to control. It counts as functional.
Experiment [3] addresses T1, Estrogen receptor (Rattus norvegicus) (UniProt P06211).
T1 sequence (whole entry): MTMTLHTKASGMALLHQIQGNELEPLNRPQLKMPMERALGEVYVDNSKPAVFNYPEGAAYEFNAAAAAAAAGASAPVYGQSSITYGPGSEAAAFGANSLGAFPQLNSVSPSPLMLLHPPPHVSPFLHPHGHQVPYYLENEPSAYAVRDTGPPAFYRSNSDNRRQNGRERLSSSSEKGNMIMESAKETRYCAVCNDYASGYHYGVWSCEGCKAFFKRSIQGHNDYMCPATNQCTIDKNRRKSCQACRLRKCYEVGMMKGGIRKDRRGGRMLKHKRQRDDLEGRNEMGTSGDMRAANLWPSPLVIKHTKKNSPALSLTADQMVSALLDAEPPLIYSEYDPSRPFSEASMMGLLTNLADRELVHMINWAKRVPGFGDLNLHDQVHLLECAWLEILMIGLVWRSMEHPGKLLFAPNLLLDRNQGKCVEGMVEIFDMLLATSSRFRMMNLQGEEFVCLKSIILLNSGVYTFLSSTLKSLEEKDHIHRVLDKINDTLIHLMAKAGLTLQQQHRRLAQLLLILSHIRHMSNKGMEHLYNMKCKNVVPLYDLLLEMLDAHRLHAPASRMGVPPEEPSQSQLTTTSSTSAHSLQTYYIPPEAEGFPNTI
As to the kind of experiment: Displacement of [3H]estradiol from estrogen receptor in uterine cytosol of estradiol primed rat relative to estradiol. The following applies: Uterus.

In experiment [4] the test system is Rattus norvegicus. As to the kind of experiment: Antiestrogenic activity in ovariectomised Sprague-Dawley rat assessed as inhibition of estradiol-induced uterine weight at 10 mg/kg, po once daily for three days measured on day 4 relative to control. It counts as functional.
Experiment [5] concerns Rattus norvegicus. The experiment can be described thus: Antiimplantation activity in Sprague-Dawley rat uterus at 5 mg/kg, po for 7 days measured on day 11. It is filed as functional.

Activity calls are given as the source filed them. No cut-off for these calls is given here. Bounds are passed on as bounds.

`c1ccc2c(c1)OCCc1c-2n(CCc2nnn(CCN3CCCC3)n2)c2ccccc12`: in the experiment with Rattus norvegicus [1], the result was inactive. The Activity in the experiment with Rattus norvegicus [2] is recorded as 29%. For the same compound, the RBA in experiment [3] was 0.04%. Besides, the inhibition in vivo at 10 mg/kg in the experiment with Rattus norvegicus [4] was determined as 12%.
In the case of `c1ccc2c(c1)OCCc1c-2n(CCc2nnnn2CCN2CCCC2)c2ccccc12`, the result in the experiment on Rattus norvegicus [1] was inactive. For the same compound, the Activity in the experiment on Rattus norvegicus [2] was found to be 40%. The same compound gave an RBA in experiment [3] of under 0.001%.
Turning to `c1ccc2c(c1)SCCc1c-2n(CCc2nnn(CCN3CCCC3)n2)c2ccccc12`, the result with Rattus norvegicus [1] was inactive. Moreover, the Activity in the experiment on Rattus norvegicus [2] is 25%. The compound also yielded an RBA in experiment [3] of under 0.001%. Moreover, the inhibition in vivo at 10 mg/kg in the experiment on Rattus norvegicus [4] is 1%.
The like results for `c1ccc2c(c1)SCCc1c-2n(CCc2nnnn2CCN2CCCCC2)c2ccccc12` were, in that order, “inactive”, 23%, under 0.001% and 2%.
As for `c1ccc2c(c1)SCCc1c-2n(CCc2nnnn2CCN2CCCC2)c2ccccc12`, the result with Rattus norvegicus [1] was inactive. Also, the Activity in the experiment on Rattus norvegicus [2] worked out at 39%. For the same compound, in experiment [3], the RBA is under 0.001%.
Take `c1ccc2c(c1)CCCc1c-2n(CCc2nnnn2CCN2CCCC2)c2ccccc12`: the Activity in the experiment on Rattus norvegicus [1] is 67%; in the experiment on Rattus norvegicus [2], 61%. For the same compound, the RBA in experiment [3] came out at 0.0125%. Moreover, in the experiment on Rattus norvegicus [4], the inhibition in vivo at 10 mg/kg was 7%.
Turning to `c1ccc2c(c1)CCCc1c-2n(CCc2nnn(CCN3CCCCC3)n2)c2ccccc12`, the outcome with Rattus norvegicus [1] was inactive. In experiment [3], this compound came in with an RBA of 0.011%.
For `c1ccc2c(c1)CCCc1c-2n(CCc2nnnn2CCN2CCCCC2)c2ccccc12`, the outcome in the experiment on Rattus norvegicus [1] was inactive. In addition, the Activity with Rattus norvegicus [2] is reported as 40%. The same compound came in with an RBA in experiment [3] of under 0.001%.
For the compound `c1ccc2c(c1)SCCc1c-2n(CCc2nnn(CCN3CCCCC3)n2)c2ccccc12`, the result in the experiment with Rattus norvegicus [1] was inactive. The compound further came in with an RBA in experiment [3] of 0.0125%. The inhibition in vivo at 10 mg/kg in the experiment on Rattus norvegicus [4] was 6%.
On to `c1ccc2c(c1)OCCc1c-2n(CCc2nnn(CCN3CCCCC3)n2)c2ccccc12`, for which, in the experiment with Rattus norvegicus [1], the result was inactive. Besides, in the experiment on Rattus norvegicus [2], the Activity was determined as 28%. Moreover, the RBA in experiment [3] was 0.011%.
Consider `c1ccc2c(c1)CCCc1c-2n(CCc2nnn(CCN3CCCC3)n2)c2ccccc12`, for which the Activity was determined as 100% with Rattus norvegicus [1], 33% in the experiment on Rattus norvegicus [2] and 67% in the experiment with Rattus norvegicus [5]. This compound also gave an RBA in experiment [3] of 0.16%. Moreover, the inhibition in vivo at 10 mg/kg in the experiment with Rattus norvegicus [4] was 3%.
Turning to `c1ccc2c(c1)OCCc1c-2n(CCc2nnnn2CCN2CCCCC2)c2ccccc12`, the outcome with Rattus norvegicus [1] was inactive. Further, the Activity in the experiment with Rattus norvegicus [2] was 44%. The compound further displayed an RBA in experiment [3] of under 0.001%. Also, the inhibition in vivo at 10 mg/kg with Rattus norvegicus [4] was 1%.
